This passage reports IC50 results from patent publication US20260365647A1, “AKT1 MODULATORS” (Alterome Therapeutics, Inc., priority 2022, published 2026).

Molecules are shown by their SMILES. Some results are limits rather than exact numbers.

T1 sequence (P31749 whole entry E17K): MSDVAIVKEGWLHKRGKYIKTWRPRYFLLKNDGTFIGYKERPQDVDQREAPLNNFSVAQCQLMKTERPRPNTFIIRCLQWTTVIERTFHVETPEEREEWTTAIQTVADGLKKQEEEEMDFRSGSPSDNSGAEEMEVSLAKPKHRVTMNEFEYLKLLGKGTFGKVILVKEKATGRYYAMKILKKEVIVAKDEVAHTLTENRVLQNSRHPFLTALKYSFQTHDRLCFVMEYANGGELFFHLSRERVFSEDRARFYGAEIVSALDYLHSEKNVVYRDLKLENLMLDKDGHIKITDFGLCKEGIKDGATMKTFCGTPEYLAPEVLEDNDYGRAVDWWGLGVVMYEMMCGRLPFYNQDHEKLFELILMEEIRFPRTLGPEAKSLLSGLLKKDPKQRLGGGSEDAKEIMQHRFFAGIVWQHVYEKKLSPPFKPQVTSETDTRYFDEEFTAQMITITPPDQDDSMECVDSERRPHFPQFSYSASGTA

The assay addresses T1, AKT1-E17K (Homo sapiens, UniProt P31749, E17K).
T1 construct: host or cells: HEK-293 (ATCC CRL-1573)
Briefly: NanoBRET Target Engagement (TE) Assay. It counts as cell-based. In short, it runs like this:
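Live cells transiently expressing NanoLuc-AKT1 E17K fusion, incubated 2 h with tracer and compound before substrate plus extracellular NanoLuc inhibitor were added. BRET read at 450/600 nm; EC50 from variable-slope sigmoidal fit of tracer displacement.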
(Bioluminescence resonance energy transfer reports proximity on the nanometre scale.)
For orientation: IC50 means the concentration at which inhibition is half-maximal. High values mean lower potency, low ones higher potency. Consider `Nc1ncccc1-c1nc2ccc(-c3ccccc3)nc2n1-c1ccc(COc2ccc(O)c(C=O)c2)cc1` [Example 139, 5-((4-(2-(2-Aminopyridin-3-yl)-5-phenyl-3H-imidazo[4,5-b]pyridin-3-yl)benzyl)oxy)-2-hydroxybenzaldehyde], for which the IC50 is over 0.6 µM.

For the compound `Nc1ncccc1-c1nc2ccc(-c3ccccc3)nc2n1-c1ccc(CN2CCC3(CC2)CCN(C(=O)c2ccc(O)c(C=O)c2)CC3)cc1` [Example 77, 5-(9-(4-(2-(2-Aminopyridin-3-yl)-5-phenyl-3H-imidazo[4,5-b]pyridin-3-yl)benzyl)-3,9-diazaspiro[5.5]undecane-3-carbonyl)-2-hydroxybenzaldehyde], the IC50 lay in the range of 0.06 to 0.6 µM.

In turn, `Nc1ncccc1-c1nc2ccc(-c3ccc(F)cc3)nc2n1-c1ccc(CN2CCN(C(=O)c3ccc(C=O)c(O)c3)CC2)cc1` [Example 144, 4-(4-(4-(2-(2-Aminopyridin-3-yl)-5-(4-fluorophenyl)-3H-imidazo[4,5-b]pyridin-3-yl)benzyl)piperazine-1-carbonyl)-2-hydroxybenzaldehyde] displayed an IC50 of 0.06 to 0.6 µM.

`Cn1cc(-c2ccc3nc(-c4cccnc4N)n(-c4ccc(CN5CCN(C(=O)c6ccc(O)c(C=O)c6)CC5)cc4)c3n2)ccc1=O` [Example 44, 5-(4-(4-(2-(2-aminopyridin-3-yl)-5-(1-methyl-6-oxo-1,6-dihydropyridin-3-yl)-3H-imidazo[4,5-b]pyridin-3-yl)benzyl)piperazine-1-carbonyl)-2-hydroxybenzaldehyde] displayed an IC50 of over 0.6 µM.

Compound `Nc1ncccc1-c1nc2ccc(-c3ccccc3)nc2n1-c1ccc(CN2CCC3(CC2)CC(NC(=O)c2ccc(O)c(C=O)c2)C3)cc1` [Example 68, N-(7-(4-(2-(2-Aminopyridin-3-yl)-5-phenyl-3H-imidazo[4,5-b]pyridin-3-yl)benzyl)-7-azaspiro[3.5]nonan-2-yl)-3-formyl-4-hydroxybenzamide] returned an IC50 of 0.015 to 0.06 µM.

As to `Nc1ncccc1-c1nc2ccc(-c3ccccc3)nc2n1-c1ccc(CN2C[C@H]3C[C@@H]2CN3C(=O)c2ccc(C=O)c(O)c2)cc1` [Example 56, 4-((1R,4R)-5-(4-(2-(2-Aminopyridin-3-yl)-5-phenyl-3H-imidazo[4,5-b]pyridin-3-yl)benzyl)-2,5-diazabicyclo[2.2.1]heptane-2-carbonyl)-2-hydroxybenzaldehyde], the IC50 is 0.06 to 0.6 µM.

`C[C@H](NC(=O)c1ccc(O)c(C=O)c1)c1ccc(-n2c(-c3cccnc3N)nc3ccc(-c4ccccc4)nc32)cc1` [Example 140, (S)—N-(1-(4-(2-(2-Aminopyridin-3-yl)-5-phenyl-3H-imidazo[4,5-b]pyridin-3-yl)phenyl)ethyl)-3-formyl-4-hydroxybenzamide]: the IC50 was 0.015 to 0.06 µM.

With `Nc1ncccc1-c1nc2ccc(-c3ccccc3)nc2n1-c1ccc(CN2CCC3(C2)CN(c2ccc(C=O)c(O)c2)C3)cc1` [Example 79, 4-(6-(4-(2-(2-Aminopyridin-3-yl)-5-phenyl-3H-imidazo[4,5-b]pyridin-3-yl)benzyl)-2,6-diazaspiro[3.4]octan-2-yl)-2-hydroxybenzaldehyde], the IC50 lay in the range of 0.015 to 0.06 µM.

The compound `Nc1ncccc1-c1nc2ccc(-c3ccccc3)nc2n1-c1ccc(CN2CC3CCC2CN3C(=O)c2ccc(O)c(C=O)c2)cc1` (stereo not drawn) [Example 126, 5-(5-(4-(2-(2-Aminopyridin-3-yl)-5-phenyl-3H-imidazo[4,5-b]pyridin-3-yl)benzyl)-2,5-diazabicyclo[2.2.2]octane-2-carbonyl)-2-hydroxybenzaldehyde] displayed an IC50 of 0.06 to 0.6 µM.

For `Nc1ncccc1-c1nc2ccc(-c3ccccc3)nc2n1-c1ccc(CN2CC[C@@]3(CCN(C(=O)c4ccc(C=O)c(O)c4)C3)C2)cc1` [Example 99, (R)-4-(7-(4-(2-(2-aminopyridin-3-yl)-5-phenyl-3H-imidazo[4,5-b]pyridin-3-yl)benzyl)-2,7-diazaspiro[4.4]nonane-2-carbonyl)-2-hydroxybenzaldehyde], the IC50 lay within 0.06 to 0.6 µM.

The compound `CN(C(=O)c1ccc(O)c(C=O)c1)C1CCN(Cc2ccc(-n3c(-c4cccnc4N)nc4ccc(-c5ccccc5)nc43)cc2)CC1` [Example 55, N-(1-(4-(2-(2-Aminopyridin-3-yl)-5-phenyl-3H-imidazo[4,5-b]pyridin-3-yl)benzyl)piperidin-4-yl)-3-formyl-4-hydroxy-N-methylbenzamide] had an IC50 of 0.015 to 0.06 µM.

For `Nc1ncccc1-c1nc2ccc(-c3ccccc3)nc2n1-c1ccc(CN2CCCN(C(=O)c3ccc(C=O)c(O)c3)CC2)cc1` [Example 72, 4-(4-(4-(2-(2-Aminopyridin-3-yl)-5-phenyl-3H-imidazo[4,5-b]pyridin-3-yl)benzyl)-1,4-diazepane-1-carbonyl)-2-hydroxybenzaldehyde], the IC50 lay in the range of 0.015 to 0.06 µM.

`Nc1ncccc1-c1nc2ccc(-c3ccccc3)nc2n1-c1ccc(CN2CC[C@@H](NC(=O)c3ccc(O)c(C=O)c3)C2)cc1` [Example 59, (R)—N-(1-(4-(2-(2-aminopyridin-3-yl)-5-phenyl-3H-imidazo[4,5-b]pyridin-3-yl)benzyl)pyrrolidin-3-yl)-3-formyl-4-hydroxybenzamide] showed an IC50 of under 0.015 µM.

Take `Nc1ncccc1-c1nc2ccc(-c3ccccc3)nc2n1-c1ccc(CN2CC3CCC2CN3C(=O)c2ccc(C=O)c(O)c2)cc1` (stereo not drawn) [Example 125, 4-(5-(4-(2-(2-aminopyridin-3-yl)-5-phenyl-3H-imidazo[4,5-b]pyridin-3-yl)benzyl)-2,5-diazabicyclo[2.2.2]octane-2-carbonyl)-2-hydroxybenzaldehyde]: the IC50 was in the range of 0.06 to 0.6 µM.

Consider `Nc1ncccc1-c1nc2ccc(-c3ccccc3)nc2n1-c1ccc(CN2CCC3(C2)CN(C(=O)c2ccc(C=O)c(O)c2)C3)cc1` [Example 153, 4-(6-(4-(2-(2-aminopyridin-3-yl)-5-phenyl-3H-imidazo[4,5-b]pyridin-3-yl)benzyl)-2,6-diazaspiro[3.4]octane-2-carbonyl)-2-hydroxybenzaldehyde], for which the IC50 was in the range of 0.06 to 0.6 µM.

`Nc1ncccc1-c1nc2cccnc2n1-c1ccc(CN2CCN(c3ccc(C=O)c(O)c3)CC2)cc1` [Example 16, 4-(4-(4-(2-(2-Aminopyridin-3-yl)-3H-imidazo[4,5-b]pyridin-3-yl)benzyl)piperazin-1-yl)-2-hydroxybenzaldehyde] gave a concentration for half-maximal inhibition (IC50) of 0.06 to 0.6 µM.

As to `Nc1ncccc1-c1nc2ccc(-c3ccccc3)nc2n1-c1ccc(CN2CCC(Oc3cccc(O)c3C=O)CC2)cc1` [Example 128, 2-((1-(4-(2-(2-Aminopyridin-3-yl)-5-phenyl-3H-imidazo[4,5-b]pyridin-3-yl)benzyl)piperidin-4-yl)oxy)-6-hydroxybenzaldehyde], the IC50 was in the range of 0.06 to 0.6 µM.

For the compound `Nc1ncccc1-c1nc2ccc(-c3ccccc3)nc2n1-c1ccc(CN2CCN(c3cc(O)c(C=O)cc3F)CC2)cc1` [Example 25, 4-(4-(4-(2-(2-Aminopyridin-3-yl)-5-phenyl-3H-imidazo[4,5-b]pyridin-3-yl)benzyl)piperazin-1-yl)-5-fluoro-2-hydroxybenzaldehyde], the IC50 lay in the range of 0.015 to 0.06 µM.

As for `Nc1ncccc1-c1nc2ccc(C3=CCOCC3)nc2n1-c1ccc(CN2CCN(C(=O)c3ccc(O)c(C=O)c3)CC2)cc1` [Example 29, 5-(4-(4-(2-(2-Aminopyridin-3-yl)-5-(3,6-dihydro-2H-pyran-4-yl)-3H-imidazo[4,5-b]pyridin-3-yl)benzyl)piperazine-1-carbonyl)-2-hydroxybenzaldehyde], the IC50 was 0.06 to 0.6 µM.

In the case of `Nc1ncccc1-c1nc2ccc(-c3ccccc3)nc2n1-c1ccc(CN2CC3(CCN(c4ccc(C=O)c(O)c4)CC3)C2)cc1` [Example 97, 4-(2-(4-(2-(2-Aminopyridin-3-yl)-5-phenyl-3H-imidazo[4,5-b]pyridin-3-yl)benzyl)-2,7-diazaspiro[3.5]nonan-7-yl)-2-hydroxybenzaldehyde], the IC50 is 0.06 to 0.6 µM.

Consider `Nc1ncccc1-c1nc2ccc(-c3ccc(Cl)cc3)nc2n1-c1ccc(CN2CCN(c3ccc(C=O)c(O)c3)CC2)cc1` [Example 146, 4-(4-(4-(2-(2-aminopyridin-3-yl)-5-(4-chlorophenyl)-3H-imidazo[4,5-b]pyridin-3-yl)benzyl)piperazin-1-yl)-2-hydroxybenzaldehyde], for which the IC50 was over 0.6 µM.

`Nc1ncccc1-c1nc2ccc(-c3ccccc3)nc2n1-c1ccc(CN2CC3CCC2CN3c2ccc(C=O)c(O)c2)cc1` (stereo not drawn) [Example 127, 4-(5-(4-(2-(2-Aminopyridin-3-yl)-5-phenyl-3H-imidazo[4,5-b]pyridin-3-yl)benzyl)-2,5-diazabicyclo[2.2.2]octan-2-yl)-2-hydroxybenzaldehyde]: the IC50 was 0.06 to 0.6 µM.

Take `Nc1ncccc1-c1nc2ccc(-c3ccccc3)nc2n1-c1ccc(CN2CC[C@]3(CCN(c4ccc(C=O)c(O)c4)C3)C2)cc1` [Example 103, (S)-4-(7-(4-(2-(2-Aminopyridin-3-yl)-5-phenyl-3H-imidazo[4,5-b]pyridin-3-yl)benzyl)-2,7-diazaspiro[4.4]nonan-2-yl)-2-hydroxybenzaldehyde]: the IC50 was 0.06 to 0.6 µM.

`Nc1ncccc1-c1nc2ccc(-c3ccccc3)nc2n1-c1ccc(COc2cccc(O)c2C=O)cc1` [Example 137, 2-((4-(2-(2-Aminopyridin-3-yl)-5-phenyl-3H-imidazo[4,5-b]pyridin-3-yl)benzyl)oxy)-6-hydroxybenzaldehyde] showed an IC50 of over 0.6 µM.

Take `Nc1ncccc1-c1nc2ccc(-c3ccccc3)nc2n1-c1ccc(CN2C3CCC2CN(C(=O)c2ccc(O)c(C=O)c2)C3)cc1` [Example 112, 5-(8-(4-(2-(2-Aminopyridin-3-yl)-5-phenyl-3H-imidazo[4,5-b]pyridin-3-yl)benzyl)-3,8-diazabicyclo[3.2.1]octane-3-carbonyl)-2-hydroxybenzaldehyde]: the IC50 is over 0.6 µM.

`Nc1ncccc1-c1nc2cccnc2n1-c1ccc(CNC(=O)c2ccc(O)c(C=O)c2)cc1` [Example 2, N-(4-(2-(2-Aminopyridin-3-yl)-3H-imidazo[4,5-b]pyridin-3-yl)benzyl)-3-formyl-4-hydroxybenzamide]: the IC50 lay in the range of 0.06 to 0.6 µM.

`Nc1ncccc1-c1nc2ccc(-c3ccccc3)nc2n1-c1ccc(CN2CCC3(CCN(C(=O)c4ccc(O)c(C=O)c4)C3)C2)cc1` (stereo not drawn) [Example 80, 5-(7-(4-(2-(2-Aminopyridin-3-yl)-5-phenyl-3H-imidazo[4,5-b]pyridin-3-yl)benzyl)-2,7-diazaspiro[4.4]nonane-2-carbonyl)-2-hydroxybenzaldehyde] came in with an IC50 of 0.06 to 0.6 µM.
